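Where inhibition never reached the appropriate level, the endpoint shown equals the highest concentration tested. Otherwise, values were interpolated linearly from a five-concentration, 48-hour dose response in 96-well plates. The concentration for full growth arrest is given as TGI.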
What was measured:
Assay in all cases: DTP human tumour cell line panel, 48 h
EKVX NSCLC = test system: EKVX NSCLC
HL-60(TB) leukemia = test system: HL-60(TB) leukemia
HS 578T breast = test system: HS 578T breast
HT29 colon = test system: HT29 colon
IGROV1 ovarian = test system: IGROV1 ovarian
K-562 leukemia = test system: K-562 leukemia
KM12 colon = test system: KM12 colon
LOX IMVI melanoma = test system: LOX IMVI melanoma
M14 melanoma = test system: M14 melanoma
MCF7 breast = test system: MCF7 breast
MDA-MB-435 = test system: MDA-MB-435
MOLT-4 leukemia = test system: MOLT-4 leukemia
OVCAR-8 ovarian = test system: OVCAR-8 ovarian
PC-3 prostate = test system: PC-3 prostate
SF-539 CNS = test system: SF-539 CNS
SK-OV-3 ovarian = test system: SK-OV-3 ovarian
U251 CNS = test system: U251 CNS
UACC-257 melanoma = test system: UACC-257 melanoma
NCI-H522 lung = test system: NCI-H522 lung

| SMILES | TGI (EKVX NSCLC) | TGI (HL-60(TB) leukemia) | TGI (HS 578T breast) | TGI (HT29 colon) | TGI (IGROV1 ovarian) | TGI (K-562 leukemia) | TGI (KM12 colon) | TGI (LOX IMVI melanoma) | TGI (M14 melanoma) | TGI (MCF7 breast) | TGI (MDA-MB-435) | TGI (MOLT-4 leukemia) | TGI (OVCAR-8 ovarian) | TGI (PC-3 prostate) | TGI (SF-539 CNS) | TGI (SK-OV-3 ovarian) | TGI (U251 CNS) | TGI (UACC-257 melanoma) | TGI (NCI-H522 lung) |
| --- | --- | --- | --- | --- | --- | --- | --- | --- | --- | --- | --- | --- | --- | --- | --- | --- | --- | --- | --- |
| CCCN1CC=C(c2cc(C(=O)OCC)[nH]c2-c2cc(C)no2)C1=O | > 100 µM | > 100 µM | > 100 µM | > 100 µM | > 100 µM | > 100 µM | > 100 µM | > 100 µM | > 100 µM | > 100 µM | > 100 µM | > 100 µM | > 100 µM | > 100 µM | > 100 µM | > 100 µM | > 100 µM | > 100 µM |  |
| C=CCOC(=O)Cn1cc(C)c(=O)[nH]c1=O | > 100 µM | > 100 µM | > 100 µM | > 100 µM | > 100 µM | > 100 µM | > 100 µM | > 100 µM | > 100 µM | > 100 µM | > 100 µM | > 100 µM | > 100 µM | > 100 µM | > 100 µM | > 100 µM | > 100 µM | > 100 µM |  |
| COc1cc(OC)cc(OCc2ccc3nc(-c4ccccc4)c(Cl)nc3c2)c1 | > 100 µM | > 100 µM | > 100 µM | > 100 µM | 66.4 µM |  | > 100 µM | > 100 µM | > 100 µM | > 100 µM | > 100 µM | 74.1 µM | 95.9 µM | > 100 µM | 49.9 µM |  | 59.9 µM | > 100 µM | 20.3 µM |
| COC(=O)[C@H](Cc1ccccc1)NC(=O)N1CCCN(C(=O)N[C@@H](Cc2ccccc2)C(=O)OC)CCCN(C(=O)N[C@@H](Cc2ccccc2)C(=O)OC)CCC1 | 53.5 µM | 69.2 µM | 44.6 µM | 33.5 µM | 31.3 µM | > 100 µM | > 100 µM | 29.8 µM | 32.4 µM | 49.3 µM | 54.7 µM | 40.8 µM | 47.2 µM | 31.1 µM |  | 73.9 µM | 32.8 µM | 35.5 µM | 35.2 µM |
| CC(C)(C)OC(=O)CC(NC(=O)OC(C)(C)C)C(=O)N[C@@H]1CCCC[C@H]1C(=O)OCc1ccccc1 (stereo not given in full) | > 100 µM | 68.9 µM | 48 µM | 59.1 µM | > 100 µM | > 100 µM | > 100 µM | > 100 µM | > 100 µM | 85.5 µM | 92.2 µM | 89.1 µM | > 100 µM | > 100 µM | 64 µM | 65 µM | 61.4 µM | 89.4 µM |  |
| C=[N+](CNC(=O)CNC(=O)C(Cc1ccc([N+](=O)[O-])cc1)NC(=O)OC(C)(C)C)C(=O)CNC(=O)C(Cc1ccc([N+](=O)[O-])cc1)NC(=O)OC(C)(C)C (stereo not given) | > 100 µM | 46.5 µM | > 100 µM | > 100 µM | > 100 µM | > 100 µM | > 100 µM | 33.4 µM | > 100 µM | > 100 µM | 62.7 µM | 67.4 µM | > 100 µM | > 100 µM | 57.9 µM | > 100 µM | > 100 µM |  | 79.8 µM |
| n1onc2c1NC1Nc3nonc3NC1N2 (stereo not given) | > 100 µM | > 100 µM | > 100 µM | > 100 µM | > 100 µM | > 100 µM | > 100 µM | > 100 µM | > 100 µM | > 100 µM | > 100 µM | > 100 µM | > 100 µM | > 100 µM | > 100 µM | > 100 µM | > 100 µM |  | > 100 µM |
| O=C(Nc1nc(C23CC4CC(CC(C4)C2)C3)cs1)c1c(O)c2ccccc2[nH]c1=O | > 100 µM | > 100 µM | > 100 µM | > 100 µM | > 100 µM | > 100 µM | > 100 µM | > 100 µM |  | > 100 µM | > 100 µM | > 100 µM | > 100 µM | > 100 µM | > 100 µM |  | > 100 µM | > 100 µM | > 100 µM |
| CC(C)(C)n1c(=O)[nH]n(C2NN=Cc3cccc4cccc2c34)c1=O (stereo not given) | 68.8 µM | 42.1 µM | > 100 µM | 45.9 µM |  | 40.7 µM | > 100 µM | > 100 µM | > 100 µM | > 100 µM | > 100 µM | 81.1 µM | > 100 µM | > 100 µM | 45.1 µM | > 100 µM | > 100 µM | > 100 µM |  |
| Cn1c(N)c(C(N)=O)[nH]c1=S | > 100 µM | > 100 µM | > 100 µM | > 100 µM | > 100 µM | > 100 µM | > 100 µM | > 100 µM | > 100 µM | > 100 µM | > 100 µM | > 100 µM | > 100 µM | > 100 µM | > 100 µM | > 100 µM | > 100 µM |  | > 100 µM |
| Cc1n[nH]c(=O)n1C1CCCC1 | > 100 µM | > 100 µM | > 100 µM | > 100 µM | > 100 µM | > 100 µM | > 100 µM | > 100 µM | > 100 µM | > 100 µM | > 100 µM | > 100 µM | > 100 µM | > 100 µM | > 100 µM |  | > 100 µM | > 100 µM | > 100 µM |

— PubChem BioAssay (NCI)
